For this experiment, the system named is AChR clusters. As to the kind of experiment: AChR clustering inhibition trial (agrin-induced AChR clusters in myotubes, α-bungarotoxin-tetramethylrhodamine staining, confocal quantification). The format is cell-based. The note with it: mouse myotubes, normalized to basal values of the medium.

Data on 24 substances can be found in patent US8946166B2, “Peptide-based compounds and compositions which inhibit muscle contraction” (Lipotec, S.A., priority 2009, dated 2015).

Regarding “Ac-L-Pro-L-Asp-L-Tyr-L-Tyr-L-Lys-L-Met-NH2”, under “peptide 10 μM”, the “Percentage of AChR cluster inhibition” value is recorded as 40.7%. Consider “Ac-L-Pro-L-Asp-L-Tyr-L-Tyr-L-Arg-L-Met-NH2”, for which the “Percentage of AChR cluster inhibition” value (peptide 10 μM) is listed as 61.1%. As to “Palm-L-Pro-L-Asp-L-Tyr-L-Tyr-L-Lys-L-Leu-NH2”, the “Percentage of AChR cluster inhibition” value (peptide 10 μM) is recorded as 33.7%. For the substance “Ac-L-Pro-L-Asp-L-Tyr-L-Phe-L-Arg-L-Leu-NH—(CH2)15—CH3”, for the setting “peptide 100 μM”, the “Percentage of AChR cluster inhibition” value was determined as 27.8%. Same read-out and setting: the value for “Ac-L-Pro-L-Asp-L-Tyr-L-Tyr-L-Lys-L-Leu-NH2” was 36.7%.

Consider “Palm-L-Glu-L-Asp-L-Tyr-L-Tyr-L-Arg-L-Met-NH2”, for which the “Percentage of AChR cluster inhibition” value (peptide 100 μM) is 68.5%. Same read-out and setting: the result for “Ac-L-Glu-L-Asp-L-Arg-L-Phe-L-Arg-L-Met-OH” reads 39.1%.

For the substance “Ac-L-Glu-L-Asp-L-Tyr-L-Tyr-L-Arg-L-Leu-NH2”, the “Percentage of AChR cluster inhibition” value (peptide 10 μM) is reported as 57.1%. “Ac-L-Glu-L-Asp-L-Arg-L-Phe-L-Arg-L-Met-NH2”: the “Percentage of AChR cluster inhibition” value (peptide 100 μM) is on record as 55.1%. Take “H-L-Glu-L-Asp-L-Arg-L-Phe-L-Arg-L-Met-NH2”: the “Percentage of AChR cluster inhibition” value (peptide 10 μM) is recorded as 25.6%.

With “Ac-L-Glu-L-Asp-L-Arg-L-Tyr-L-Arg-L-Leu-NH2”, the “Percentage of AChR cluster inhibition” value (peptide 100 μM) stood at 24.5%. Turning to “Ac-L-Asp-L-Asp-L-Tyr-L-Phe-L-Arg-L-Leu-NH2”, the “Percentage of AChR cluster inhibition” value (peptide 10 μM) is given as 33.8%. On to “Ac-L-Glu-L-Asp-L-Tyr-L-Phe-L-Arg-L-Leu-NH2”, for which the “Percentage of AChR cluster inhibition” value (peptide 10 μM) amounted to 30.8%. “Ac-L-Pro-L-Asp-L-Arg-L-Phe-L-Lys-L-Leu-NH2”: the “Percentage of AChR cluster inhibition” value (peptide 10 μM) is 46.1%. The same measure, in the same setting: the result for “Palm-L-Glu-L-Asp-L-Tyr-L-Tyr-L-Arg-L-Leu-NH2” reads 34.8%; that for “Ac-L-Asp-L-Asp-L-Tyr-L-Tyr-L-Lys-L-Met-NH2”, 21.5%. As for “Ac-L-Glu-L-Asp-L-Arg-L-Phe-L-Lys-L-Leu-NH2”, for the setting “peptide 10 μM”, the “Percentage of AChR cluster inhibition” value is on record as 23.7%. “Ac-L-Pro-L-Asp-L-Arg-L-Tyr-L-Lys-L-Leu-NH2”: the “Percentage of AChR cluster inhibition” value (peptide 100 μM) is 43.6%.

For “Ac-L-Pro-L-Asp-L-Tyr-L-Phe-L-Lys-L-Leu-NH2”, the “Percentage of AChR cluster inhibition” value (peptide 10 μM) was 27.8%. Same read-out and setting: the value for “Ac-L-Asp-L-Asp-L-Tyr-L-Tyr-L-Arg-L-Met-NH2” was 31.3%.

With “Ac-L-Glu-L-Asp-L-Tyr-L-Phe-L-Arg-L-Leu-OH”, the “Percentage of AChR cluster inhibition” value (peptide 100 μM) is given as 33.8%. Same read-out and setting: the result for “Ac-L-Pro-L-Asp-L-Arg-L-Tyr-L-Arg-L-Leu-NH2” reads 40.2%. As for “Ac-L-Glu-L-Asp-L-Arg-L-Phe-L-Arg-L-Leu-NH2”, the “Percentage of AChR cluster inhibition” value (peptide 10 μM) is reported as 20.8%. Still for that read-out and setting: the value for “Ac-L-Pro-L-Asp-L-Tyr-L-Tyr-L-Arg-L-Leu-NH2” was 51.9%.
